Reference: patent US9637496B2, “Substituted 7-azabicycles and their use as orexin receptor modulators” (priority 2013, dated 2017)
Read-outs that look alike come from different tables or passages of the source.

Key:
[1] = target: rat orexin 1 receptor (Rattus norvegicus (Rat), UniProt P56718); assay: Rat orexin 1 receptor radioligand binding (competitive binding, HEK293 membranes)
[2] = target: human orexin 1 receptor (Homo sapiens (Human), UniProt O43613); assay: Human orexin 1 receptor radioligand binding (competitive binding, CHO membranes)
[3] = target: human orexin 2 receptor (Homo sapiens (Human), UniProt O43614); assay: Human orexin 2 receptor radioligand binding ([3H]-EMPA competition, HEK293 membranes)
[4] = human orexin 2 receptor, Table 2, averages from between 2-20 runs, read-out: hOX2 Ki
[5] = rat orexin 1 receptor, Table 2, averages from between 2-20 runs, read-out: rOX1 Ki
[6] = human orexin 1 receptor, Table 2, averages from between 2-20 runs, read-out: hOX1 Ki
[7] = Table 2, further testing, averages from 2-20 runs, read-out: hOX2 Ki
[8] = Table 2, further testing, averages from 2-20 runs, read-out: rOX1 Ki
[9] = Table 2, further testing, averages from 2-20 runs, read-out: hOX1 Ki

Sequence of rat orexin 1 receptor (P56718 whole entry): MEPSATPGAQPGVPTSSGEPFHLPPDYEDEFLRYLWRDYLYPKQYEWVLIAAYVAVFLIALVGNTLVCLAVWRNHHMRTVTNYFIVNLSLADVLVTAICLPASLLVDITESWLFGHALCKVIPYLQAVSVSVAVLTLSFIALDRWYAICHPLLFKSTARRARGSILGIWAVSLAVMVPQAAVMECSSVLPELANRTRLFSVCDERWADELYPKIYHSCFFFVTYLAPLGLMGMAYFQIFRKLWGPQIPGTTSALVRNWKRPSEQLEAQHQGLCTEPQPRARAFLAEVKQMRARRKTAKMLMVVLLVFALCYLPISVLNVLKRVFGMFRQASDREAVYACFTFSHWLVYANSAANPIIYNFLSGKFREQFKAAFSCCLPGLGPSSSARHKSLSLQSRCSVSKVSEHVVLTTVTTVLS
Sequence of human orexin 1 receptor (O43613 whole entry): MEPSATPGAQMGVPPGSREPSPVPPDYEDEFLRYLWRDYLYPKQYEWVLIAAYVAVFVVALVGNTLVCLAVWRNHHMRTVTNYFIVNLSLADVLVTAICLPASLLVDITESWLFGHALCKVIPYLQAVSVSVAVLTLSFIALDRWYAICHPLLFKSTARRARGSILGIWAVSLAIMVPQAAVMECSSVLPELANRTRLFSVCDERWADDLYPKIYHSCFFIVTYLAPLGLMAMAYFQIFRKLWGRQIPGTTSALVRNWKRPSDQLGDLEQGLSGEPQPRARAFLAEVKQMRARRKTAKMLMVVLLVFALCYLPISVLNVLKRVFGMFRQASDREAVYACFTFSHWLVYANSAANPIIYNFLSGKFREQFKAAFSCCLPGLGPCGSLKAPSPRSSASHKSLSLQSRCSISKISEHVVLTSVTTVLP
Sequence of human orexin 2 receptor (O43614 whole entry): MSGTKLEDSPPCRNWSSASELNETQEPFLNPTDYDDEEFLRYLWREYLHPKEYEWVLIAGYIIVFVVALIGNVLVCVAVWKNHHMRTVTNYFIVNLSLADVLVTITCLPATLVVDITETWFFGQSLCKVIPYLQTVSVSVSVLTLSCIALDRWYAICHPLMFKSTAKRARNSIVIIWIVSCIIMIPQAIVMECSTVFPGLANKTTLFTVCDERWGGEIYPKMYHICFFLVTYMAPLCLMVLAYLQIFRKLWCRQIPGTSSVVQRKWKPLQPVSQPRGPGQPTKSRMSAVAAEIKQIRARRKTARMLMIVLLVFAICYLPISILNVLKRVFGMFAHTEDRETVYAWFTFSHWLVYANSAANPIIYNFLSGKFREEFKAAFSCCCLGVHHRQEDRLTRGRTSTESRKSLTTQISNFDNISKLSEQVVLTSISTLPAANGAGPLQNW

SMILES: Cc1cccc(C(=O)N2[C@@H]3CC[C@H]2[C@H](Nc2ncc(Br)cn2)C3)c1-n1nccn1 [Example 318, ((1S,2R,4R)-2-((5-bromopyrimidin-2-yl)amino)-7-azabicyclo[2.2.1]heptan-7-yl)(3-methyl-2-(2H-1,2,3-triazol-2-yl)phenyl)methanone]
- Ki ([1]; read-out: rOX1 Ki): 9 nM
- Ki ([2]; read-out: hOX1 Ki): 13 nM
- Ki [3, 4]: 768 nM

SMILES: Cc1cccc(C(=O)N2[C@@H]3CC[C@H]2[C@H](Nc2ncc(Br)cn2)C3)c1-c1ncccn1 [Example 316, ((1S,2R,4R)-2-((5-bromopyrimidin-2-yl)amino)-7-azabicyclo[2.2.1]heptan-7-yl)(3-methyl-2-(pyrimidin-2-yl)phenyl)methanone]
- Ki [1, 5]: 20 nM
- Ki ([2]; read-out: hOX1 Ki): 59 nM
- Ki [3, 4]: 796 nM

SMILES: O=C(c1ccccc1-c1ncc(F)cn1)N1[C@@H]2CC[C@H]1[C@H](Nc1cnc(C(F)(F)F)cn1)C2 [Example 397, (2-(5-fluoropyrimidin-2-yl)phenyl)((1S,2R,4R)-2-((5-(trifluoromethyl)pyrazin-2-yl)amino)-7-azabicyclo[2.2.1]heptan-7-yl)methanone]
- Ki ([1]; read-out: rOX1 Ki): 50 nM
- Ki ([2]; read-out: hOX1 Ki): 24 nM
- Ki [3, 4]: 985 nM

SMILES: O=C(c1ccccc1-c1ncccn1)N1[C@@H]2CC[C@H]1[C@H](Nc1ncc(C(F)(F)F)cc1Cl)C2 [Example 386, ((1S,2R,4R)-2-((3-chloro-5-(trifluoromethyl)pyridin-2-yl)amino)-7-azabicyclo[2.2.1]heptan-7-yl)(2-(pyrimidin-2-yl)phenyl)methanone]
- Ki [1, 5]: 20 nM
- Ki [2, 6]: 29 nM
- Ki [3, 4]: 499 nM

SMILES: Cc1ccc(-c2ncccn2)c(C(=O)N2[C@@H]3CC[C@H]2[C@H](Nc2ncc(C(F)(F)F)cc2F)C3)n1 [Example 456, ((1S,2R,4R)-2-((3-fluoro-5-(trifluoromethyl)pyridin-2-yl)amino)-7-azabicyclo[2.2.1]heptan-7-yl)(6-methyl-3-(pyrimidin-2-yl)pyridin-2-yl)methanone]
- Ki ([1]; read-out: rOX1 Ki): 68 nM
- Ki ([2]; read-out: hOX1 Ki): 48 nM
- Ki [3, 7]: 454 nM

SMILES: O=C(c1ccccc1-c1ncc(F)cn1)N1[C@@H]2CC[C@H]1[C@H](Nc1ncc(C(F)(F)F)cc1Cl)C2 [Example 385, ((1S,2R,4R)-2-((3-chloro-5-(trifluoromethyl)pyridin-2-yl)amino)-7-azabicyclo[2.2.1]heptan-7-yl)(2-(5-fluoropyrimidin-2-yl)phenyl)methanone]
- Ki ([1]; read-out: rOX1 Ki): 37 nM
- Ki ([2]; read-out: hOX1 Ki): 44 nM
- Ki [3, 4]: 696 nM

SMILES: O=C(c1cc(F)ccc1-c1ncco1)N1[C@@H]2CC[C@H]1[C@H](Nc1cnc(C(F)(F)F)cn1)C2 [Example 410, (5-fluoro-2-(oxazol-2-yl)phenyl)((1S,2R,4R)-2-((5-(trifluoromethyl)pyrazin-2-yl)amino)-7-azabicyclo[2.2.1]heptan-7-yl)methanone]
- Ki ([1]; read-out: rOX1 Ki): 67 nM
- Ki ([2]; read-out: hOX1 Ki): 90 nM
- Ki [3, 4]: 1000 nM

SMILES: O=C(c1cccc(F)c1-c1ncccn1)N1[C@@H]2CC[C@H]1[C@H](Nc1cnc(Br)cn1)C2 [Example 309, ((1S,2R,4R)-2-((5-bromopyrazin-2-yl)amino)-7-azabicyclo[2.2.1]heptan-7-yl)(3-fluoro-2-(pyrimidin-2-yl)phenyl)methanone]
- Ki ([1]; read-out: rOX1 Ki): 19 nM
- Ki ([2]; read-out: hOX1 Ki): 22 nM
- Ki [3, 4]: 1100 nM

SMILES: O=C(c1cccc(F)c1-c1ncco1)N1[C@@H]2CC[C@H]1[C@H](Nc1ccc(C(F)(F)F)cn1)C2 [Example 298, (3-fluoro-2-(oxazol-2-yl)phenyl)((1S,2R,4R)-2-((5-(trifluoromethyl)pyridin-2-yl)amino)-7-azabicyclo[2.2.1]heptan-7-yl)methanone]
- Ki [1, 5]: 18 nM
- Ki [2, 6]: 18 nM
- Ki [3, 4]: 500 nM

SMILES: Cc1cccc(C(=O)N2[C@@H]3CC[C@H]2[C@H](Nc2ccc(Br)cn2)C3)c1-n1nccn1 [Example 306, ((1S,2R,4R)-2-((5-bromopyridin-2-yl)amino)-7-azabicyclo[2.2.1]heptan-7-yl)(3-methyl-2-(2H-1,2,3-triazol-2-yl)phenyl)methanone]
- Ki ([1]; read-out: rOX1 Ki): 11 nM
- Ki ([2]; read-out: hOX1 Ki): 4 nM
- Ki [3, 4]: 396 nM

SMILES: O=C(c1ccccc1-n1nccn1)N1[C@@H]2CC[C@H]1[C@H](Nc1ncc(C(F)(F)F)cc1F)C2 [Example 448, (2-(2H-1,2,3-triazol-2-yl)phenyl)((1S,2R,4R)-2-((3-fluoro-5-(trifluoromethyl)pyridin-2-yl)amino)-7-azabicyclo[2.2.1]heptan-7-yl)methanone]
- Ki [1, 8]: 41 nM
- Ki [2, 9]: 33 nM
- Ki [3, 7]: 666 nM

SMILES: O=C(c1ccc(F)cc1-c1ncccn1)N1C2CCC1C(Oc1ccc(C(F)(F)F)cn1)C2 (racemic) [Example 430]
- Ki [1, 5]: 245 nM
- Ki [2, 6]: 300 nM
- Ki [3, 4]: > 10000 nM

SMILES: O=C(c1cccc(F)c1-c1ncccn1)N1[C@@H]2CC[C@H]1[C@H](Nc1ccc(C(F)F)cn1)C2 [Example 389, ((1S,2R,4R)-2-((5-(difluoromethyl)pyridin-2-yl)amino)-7-azabicyclo[2.2.1]heptan-7-yl)(3-fluoro-2-(pyrimidin-2-yl)phenyl)methanone]
- Ki [1, 5]: 123 nM
- Ki [2, 6]: 168 nM
- Ki [3, 4]: 741 nM

SMILES: Cc1cccc(C(=O)N2[C@@H]3CC[C@H]2[C@H](Nc2ncc(C(F)(F)F)cc2F)C3)c1-n1nccn1 [Example 450, ((1S,2R,4R)-2-((3-fluoro-5-(trifluoromethyl)pyridin-2-yl)amino)-7-azabicyclo[2.2.1]heptan-7-yl)(3-methyl-2-(2H-1,2,3-triazol-2-yl)phenyl)methanone]
- Ki [1, 8]: 14 nM
- Ki [2, 9]: 32 nM
- Ki [3, 7]: 340 nM

SMILES: Cc1cnc(-n2nccn2)c(C(=O)N2[C@@H]3CC[C@H]2[C@H](Nc2ncc(C(F)(F)F)cc2F)C3)c1 [Example 453, ((1S,2R,4R)-2-((3-fluoro-5-(trifluoromethyl)pyridin-2-yl)amino)-7-azabicyclo[2.2.1]heptan-7-yl)(5-methyl-2-(2H-1,2,3-triazol-2-yl)pyridin-3-yl)methanone]
- Ki [1, 8]: 210 nM
- Ki [2, 9]: 305 nM
- Ki [3, 7]: > 10000 nM

SMILES: O=C(c1cccc(F)c1-c1ncco1)N1[C@@H]2CC[C@H]1[C@H](Nc1ncc(C(F)(F)F)cc1F)C2 [Example 454, (3-fluoro-2-(oxazol-2-yl)phenyl)((1S,2R,4R)-2-((3-fluoro-5-(trifluoromethyl)pyridin-2-yl)amino)-7-azabicyclo[2.2.1]heptan-7-yl)methanone]
- Ki [1, 8]: 18 nM
- Ki [2, 9]: 23 nM
- Ki [3, 7]: 590 nM

SMILES: Cc1cccc(C(=O)N2[C@@H]3CC[C@H]2[C@H](Nc2ncc(Br)cn2)C3)c1-c1ncco1 [Example 314, ((1S,2R,4R)-2-((5-bromopyrimidin-2-yl)amino)-7-azabicyclo[2.2.1]heptan-7-yl)(3-methyl-2-(oxazol-2-yl)phenyl)methanone]
- Ki ([1]; read-out: rOX1 Ki): 6 nM
- Ki ([2]; read-out: hOX1 Ki): 14 nM
- Ki [3, 4]: 349 nM

SMILES: [2H]C1(Nc2cnc(C(F)(F)F)cn2)CC2CCC1N2C(=O)c1cccc(F)c1-c1ncccn1 [Example 395, (3-fluoro-2-(pyrimidin-2-yl)phenyl)((1S,2R,4R)-(2-^2H)-((5-(trifluoromethyl)pyrazin-2-yl)amino)-7-azabicyclo[2.2.1]heptan-7-yl)methanone]
- Ki [1]: 17 nM
- Ki [2]: 14 nM
- Ki [3]: 899 nM

SMILES: Cc1cccc(C(=O)N2[C@@H]3CC[C@H]2[C@H](Nc2cnc(Br)cn2)C3)c1-c1ncccn1 [Example 310, ((1S,2R,4R)-2-((5-bromopyrazin-2-yl)amino)-7-azabicyclo[2.2.1]heptan-7-yl)(3-methyl-2-(pyrimidin-2-yl)phenyl)methanone]
- Ki [1, 5]: 9 nM
- Ki [2, 6]: 7 nM
- Ki [3, 4]: 381 nM
